Values after ≈ are worked out from the molar mass of the structure shown.
Legend:
ROCK1 = ROCK1 (Homo sapiens (Human), UniProt Q13464); test: ADP-Glo kinase assay, ROCK1; assay type: biochemical; settings: 10 μM ATP, 170 μM S6K substrate, 120 min
Experimental: (§1) ADP-Glo kinase assay (Promega). The ADP-Glo™ Kinase Assay is a luminescent ADP detection assay that allows measurement of kinase activity based on the amount of ADP produced during a kinase reaction. The kinase reaction is performed in the presence of ATP, S6K substrate ([…]) and the ROCK kinase in the appropriate Kinase Reaction Buffer (1×). Upon termination of the reaction, the unconsumed ATP is depleted by addition of ADP-Glo™ Reagent. Next, Kinase Detection Reagent is added to convert ADP to ATP and allow the newly synthesized ATP to be measured using a luciferase/luciferin reaction. The luminescence is proportional to the produced ADP and consequently to the kinase activity. The ADP-Glo™ Kinase Assay was performed in a 384 well plate format as follows.
(§2) Kinase Detection Reagent Preparation: The Kinase Detection Buffer was thawed at room temperature (RT). If a precipitate was present, the buffer was incubated at 37° C. with constant swirling for 15 minutes to dissolve the precipitate or the precipitate was removed from the buffer by carefully pipetting the supernatant from the bottle. After equilibrating both the Kinase Detection Buffer and Kinase Detection Substrate to room temperature, the entire volume of Kinase Detection Buffer was transferred into the bottle containing Kinase Detection Substrate to reconstitute the lyophilized substrate, followed by gentile mixing to obtain a homogeneous solution.
(§3) Kinase Reaction Buffer Preparation: Kinase reaction buffer was prepared freshly before each experiment.
(§4) ADP-Glo Reagents Preparation. Three mixes were prepared on ice before running the assay: • Mix 1—containing ROCK1 or ROCK2 in Kinase Reaction Buffer (1×) • Mix 2—containing S6K peptide in Kinase Reaction Buffer (1×) • Mix 3—containing ATP in Kinase Reaction Buffer (1×)
(§5) The ratios of reagent volumes in the assay were 1:1:2 of kinase reaction to ADP-Glo™ Reagent to Kinase Detection Reagent. For 384-well plates, volumes were: 5 μl of kinase reaction, 5 μl of ADP-Glo™ Reagent and 10 μl of Kinase Detection Reagent.
(§6) Generating a standard curve for conversion of ATP to ADP. To estimate the amount of ADP produced in the kinase reaction, a standard curve that represents the luminescence corresponding to the conversion of ATP to ADP was prepared based on the ATP concentration used in the kinase reaction. These conversion curves represent the amounts of ATP and ADP available in a reaction at the specified conversion percentage ranging from 100% conversion to 0% conversion. The standard samples used to generate an ATP-to-ADP conversion curve are created by combining the appropriate volumes of ATP and ADP stock solutions.
(§7) Each plate contained a positive control (1 μM Comp. A for ROCK2 and 1 μM RKI-1447 for ROCK1); a vehicle control (1% DMSO); a blank control (kinase reaction buffer (1×)); a low control (substrate and ATP, without kinase); and an autophosphorylation control (kinase and ATP, without substrate). Test and reference compounds were diluted in 100% DMSO to obtain 10 mM stock solutions. Each compound was tested in 8-serial dilutions in duplicate. The final concentration of DMSO in the reaction was 1% (up to 50 nL).
(§8) 5 μl/well Kinase Reaction Buffer (1×) was dispensed to blank control wells. 2 μl/well Kinase Reaction Buffer (1×) was dispensed to control without protein (low control) and without substrate (autophosphorylation) wells. The plate was sealed with adhesive film followed by a short spin (1 min, 1000 rpm).
(§9) 2 μl/well kinase (2.5×) solution was dispensed into relevant wells of the assay plate. The plate was sealed with adhesive film followed by a short spin (1 min, 1000 rpm).
(§10) The plate was sealed with adhesive film followed by a short spin (1 min, 1000 rpm).
(§11) 1 μl/well ATP (5×) solution was dispensed into relevant wells of the assay plate. The final volume of reaction was […]. The plate was sealed with adhesive film followed by a short spin (1 min, 1000 rpm).

ROCK2 = ROCK2 (Homo sapiens (Human), UniProt O75116); test: ADP-Glo kinase assay, ROCK2; assay type: biochemical; settings: 40 μM ATP, 170 μM S6K substrate, 120 min
Sequence of ROCK2 (O75116 whole entry): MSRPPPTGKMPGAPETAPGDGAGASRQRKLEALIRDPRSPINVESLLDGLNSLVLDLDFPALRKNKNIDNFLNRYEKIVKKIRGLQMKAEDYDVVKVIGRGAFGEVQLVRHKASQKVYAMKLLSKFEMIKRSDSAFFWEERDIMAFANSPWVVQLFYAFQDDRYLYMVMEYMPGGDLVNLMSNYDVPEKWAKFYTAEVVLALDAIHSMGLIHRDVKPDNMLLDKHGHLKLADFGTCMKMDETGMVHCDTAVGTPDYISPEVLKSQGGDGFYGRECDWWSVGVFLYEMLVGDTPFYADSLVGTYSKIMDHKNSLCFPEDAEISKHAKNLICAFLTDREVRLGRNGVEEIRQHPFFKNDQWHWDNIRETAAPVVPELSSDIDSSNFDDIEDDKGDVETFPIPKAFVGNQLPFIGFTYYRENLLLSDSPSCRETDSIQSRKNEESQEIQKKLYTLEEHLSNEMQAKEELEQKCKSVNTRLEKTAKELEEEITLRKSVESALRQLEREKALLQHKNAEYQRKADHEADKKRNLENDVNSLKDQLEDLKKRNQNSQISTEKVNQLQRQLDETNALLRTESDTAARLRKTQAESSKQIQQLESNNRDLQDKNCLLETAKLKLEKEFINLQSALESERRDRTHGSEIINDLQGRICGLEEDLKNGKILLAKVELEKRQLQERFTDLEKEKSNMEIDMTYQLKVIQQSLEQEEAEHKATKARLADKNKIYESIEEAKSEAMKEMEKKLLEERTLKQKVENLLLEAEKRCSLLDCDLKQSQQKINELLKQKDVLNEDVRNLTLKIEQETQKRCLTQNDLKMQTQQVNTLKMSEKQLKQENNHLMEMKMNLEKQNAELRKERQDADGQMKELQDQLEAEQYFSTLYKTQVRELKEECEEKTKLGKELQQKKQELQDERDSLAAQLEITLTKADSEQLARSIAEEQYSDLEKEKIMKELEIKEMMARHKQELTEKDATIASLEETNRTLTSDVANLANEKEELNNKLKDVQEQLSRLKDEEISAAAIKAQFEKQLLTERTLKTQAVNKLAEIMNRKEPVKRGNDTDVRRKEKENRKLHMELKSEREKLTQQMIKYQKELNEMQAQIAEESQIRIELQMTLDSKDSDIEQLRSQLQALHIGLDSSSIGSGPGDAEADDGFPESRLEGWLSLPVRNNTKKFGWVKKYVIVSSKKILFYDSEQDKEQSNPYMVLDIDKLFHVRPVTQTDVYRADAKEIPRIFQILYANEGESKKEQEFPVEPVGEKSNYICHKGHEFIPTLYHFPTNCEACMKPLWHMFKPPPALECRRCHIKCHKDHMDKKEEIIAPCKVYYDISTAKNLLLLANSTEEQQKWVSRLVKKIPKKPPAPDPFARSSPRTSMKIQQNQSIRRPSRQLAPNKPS
Experimental: as §1, §2, §3, §4, §5, §6, §7, §8, §9, §10, §11

[1] = test system: mouse 3T3-L1 pre-adipocytes; settings: cited from earlier work
[2] = test system: human adipose-derived stem cells; settings: cited from earlier work
Kinetic solubility = assay type: physicochemical; settings: kinetic from dmso stock
[3] = test system: IL-17 secretion in human CD4+ T cells; test: IL-17 secretion in Th17-skewed human CD4+ T cells (ELISA); assay type: cell-based; settings: anti-CD3/28 mAbs, IL-1β (50 ng/mL) and TGF-β (5 ng/mL), 48 hours
Experimental: In this study, peripheral blood CD4^+ T cells were treated with the indicated doses of the ROCK2 inhibitors and then stimulated by anti-CD3/28 mAbs, IL-1β (50 ng/mL) and TGF-β (5 ng/mL) for 48 hours. The supernatants were analyzed for IL-17 by ELISA. One representative of three different experiments is shown.

[4] = test system: STAT3 phosphorylation in human CD4+ T cells; test: STAT3 phosphorylation in Th17-skewed human CD4+ T cells (Western Blot); assay type: cell-based; settings: stimulated 2 hours, FIG. 3
Experimental: (§12) In these studies, peripheral blood CD4^+ T cells were treated with indicated doses of inhibitors and then stimulated by anti-CD3/28 mAbs, IL-1β (50 ng/mL) and TGF-β (5 ng/mL) for 2 hours. The cell lysates were prepared and analyzed by Western Blot. One representative of three different experiments is shown.

[5] = test system: pCofilin in human CD4+ T cells; test: pCofilin in human CD4+ T cells (Western Blot); assay type: cell-based; settings: stimulated 2 hours, FIG. 4
Experimental: as §12

[6] = test system: human lung fibroblast MRC-5 cells; test: TGF-β-induced pro-fibrogenic gene expression in MRC-5 fibroblasts (RT-PCR); assay type: cell-based; settings: MRC-5, TGF-β1 2.5 ng/mL, 48 hours, FIG. 5
Experimental: (§13) ROCKs are activated by small GTPase Rho in response to a variety of profibrotic signals and regulate cytoskeletal dynamics, activation of different down-stream intracellular targets and expression of key profibrotic genes, such as fibronectin, smooth muscle actin (α-SMA) and collagen 3 (Col3A1).
(§14) In these studies, human lung fibroblast MRC-5 cells were acquired from American Type Culture Collection (ATCC) and cultured in MEM supplemented with 10% fetal bovine serum. The cells were seeded in 24-well cell culture plates at 50,000/mL/well. On the following day, the cells were starved in MEM containing 0.5% FBS for overnight. […] Cellular mRNA was isolated and mRNA expression of indicated genes (fibronectin, αSMA and col3A) was analyzed by RT-PCR (FIG. 5). Secreted pro-collagen 1a (Col1A1) in supernatants was measured by ELISA (FIG. 6).

[7] = test system: human lung fibroblast MRC-5 cells; test: Col1A protein secretion in MRC-5 supernatants (ELISA); assay type: cell-based; settings: MRC-5, TGF-β1 2.5 ng/mL, 48 hours, FIG. 6
Experimental: as §13, §14

[8] = test system: Human subcutaneous adipocytes; test: Adipogenesis in primary human adipocytes (Oil Red staining); assay type: cell-based; settings: adipogenic cocktail, 10 days, Oil Red absorbance, FIG. 7
Experimental: Adipogenesis is a multi-step complex process, progressing from precursor stem cells to adipocytes that synthesize and store fat. […] ROCKs have been implicated in regulation of adipocyte differentiation, however the isoform-specific contribution to adipogenesis and other metabolic pathways is not well characterized. […] In this study, Human subcutaneous adipocytes were grown to confluence before induction to differentiation by adipogenic cocktail (0.1 μM dexamethasone, 1 μM insulin, 200 μM indomethacin, 250 μM isobutyl methylxanthine (IBMX)) in the presence of indicated concentrations of Ex. 1 or Ex. 2 for 10 days. Differentiated cells were stained by Oil Red which was extracted by isopropanol and measured by absorbance at 492 nm.

Sequence of ROCK1 (Q13464 whole entry): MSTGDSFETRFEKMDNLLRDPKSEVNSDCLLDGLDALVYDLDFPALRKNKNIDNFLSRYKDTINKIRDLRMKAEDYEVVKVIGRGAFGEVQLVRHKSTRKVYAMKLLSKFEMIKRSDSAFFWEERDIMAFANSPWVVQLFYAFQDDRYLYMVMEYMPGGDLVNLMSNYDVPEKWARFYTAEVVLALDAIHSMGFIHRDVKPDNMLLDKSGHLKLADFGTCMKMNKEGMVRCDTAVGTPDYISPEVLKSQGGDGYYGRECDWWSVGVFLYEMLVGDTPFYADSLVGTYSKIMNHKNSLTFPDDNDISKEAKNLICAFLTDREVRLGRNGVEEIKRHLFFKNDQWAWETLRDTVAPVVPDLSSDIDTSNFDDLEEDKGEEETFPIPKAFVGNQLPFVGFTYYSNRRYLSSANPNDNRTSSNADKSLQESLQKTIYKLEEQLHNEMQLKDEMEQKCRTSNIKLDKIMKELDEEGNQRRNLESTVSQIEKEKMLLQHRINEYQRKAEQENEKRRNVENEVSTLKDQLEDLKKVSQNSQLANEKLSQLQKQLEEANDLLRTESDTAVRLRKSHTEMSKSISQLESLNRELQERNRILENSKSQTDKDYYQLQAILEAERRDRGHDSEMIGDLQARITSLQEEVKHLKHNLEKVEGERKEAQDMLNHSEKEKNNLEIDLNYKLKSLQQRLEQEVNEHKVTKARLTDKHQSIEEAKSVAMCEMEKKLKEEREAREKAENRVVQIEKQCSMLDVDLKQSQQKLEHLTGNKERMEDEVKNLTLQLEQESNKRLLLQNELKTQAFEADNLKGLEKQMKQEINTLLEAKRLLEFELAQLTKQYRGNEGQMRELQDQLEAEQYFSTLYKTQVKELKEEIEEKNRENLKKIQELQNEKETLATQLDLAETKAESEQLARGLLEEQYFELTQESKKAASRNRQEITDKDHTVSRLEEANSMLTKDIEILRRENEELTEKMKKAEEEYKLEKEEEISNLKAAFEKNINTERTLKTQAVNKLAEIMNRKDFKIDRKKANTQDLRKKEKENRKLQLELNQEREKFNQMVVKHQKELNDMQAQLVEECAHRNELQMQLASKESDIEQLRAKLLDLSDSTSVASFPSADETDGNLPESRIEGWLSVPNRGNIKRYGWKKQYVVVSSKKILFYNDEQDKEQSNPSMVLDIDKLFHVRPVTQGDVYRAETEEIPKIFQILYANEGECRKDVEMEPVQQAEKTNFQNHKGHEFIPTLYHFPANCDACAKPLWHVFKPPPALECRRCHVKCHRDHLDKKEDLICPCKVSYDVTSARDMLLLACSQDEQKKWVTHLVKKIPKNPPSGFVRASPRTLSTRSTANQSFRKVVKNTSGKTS

Structure (SMILES) | IC50 (ROCK1) | IC50 (ROCK2) | other results
CC(C)NC(=O)COc1cccc(-c2nc(Nc3ccc4[nH]ncc4c3)c3ccccc3n2)c1 [KD025] |  |  | adipocyte differentiation [1]: down-regulated adipocyte differentiation; adipocyte differentiation [2]: down-regulated adipocyte differentiation
C[C@H](NC(=O)c1cc2ccc(-c3nccc(Nc4ccc(-c5cnc[nH]5)cc4)n3)cc2n1CCN(C)C)C(F)(F)F [Example 8] | 10.7 µM |  | 
Cn1c(C(=O)N2CC(F)(F)C2)cc2ccc(-c3nccc(Nc4ccc(-c5cnc[nH]5)cc4)n3)cc21 [Example 1, 2-[2-(3,3-difluoroazetidine-1-carbonyl)-1-methyl-1H-indol-6-yl]-N-[4-(1H-imidazol-5-yl)phenyl]pyrimidin-4-amine] | > 50 µM |  | solubility kinetic (Kinetic solubility): 2.2 µg/mL (≈ 4.53 µM); EC50 [3]: 0.838 µM; STAT3 phosphorylation induced by Th17-skewing activation [4]: down-regulate STAT3 phosphorylation; pCofilin [5]: down-regulate pCofilin; TGF-β-induced Col3A1 gene expression [6]: down-regulate dose-dependently; TGF-β-induced fibronectin gene expression [6]: down-regulate dose-dependently; TGF-β-induced α-SMA gene expression [6]: down-regulate dose-dependently; Col1A protein production in supernatants [7]: down-regulate dose-dependently; adipogenesis [8]: down-regulate adipogenesis in a dose-dependent manner
Cn1c(C(=O)N2CC(F)(F)C2)cc2ccc(-c3nccc(Nc4ccc(-c5cn[nH]c5)cc4)n3)cc21 [Comp. A, reference compound] | 3.21 µM | 0.00229 µM | solubility kinetic (Kinetic solubility): < 1.9 µg/mL
O=C(c1cc2c(s1)CN(c1nccc(Nc3ccc(-c4c[nH]nn4)cc3)n1)CC2)N1CC(F)(F)C1 [Example 3′, 2-[2-(3,3-difluoroazetidine-1-carbonyl)-4H,5H,6H,7H-thieno[2,3-c]pyridin-6-yl]-N-[4-(1H-1,2,3-triazol-4-yl)phenyl]pyrimidin-4-amine] | 2.73 µM | 0.961 µM | 
Cn1c(C(=O)N2CC(F)(F)C2)cc2ccc(-c3nccc(Nc4ccc(-c5c[nH]nn5)cc4)n3)cc21 [Example 2, 2-[2-(3,3-difluoroazetidine-1-carbonyl)-1-methyl-1H-indol-6-yl]-N-[4-(1H-1,2,3-triazol-4-yl)phenyl]pyrimidin-4-amine] | > 50 µM |  | solubility kinetic (Kinetic solubility): 2.69 µg/mL (≈ 5.53 µM); EC50 [3]: 0.764 µM; STAT3 phosphorylation induced by Th17-skewing activation [4]: down-regulate STAT3 phosphorylation; pCofilin [5]: down-regulate pCofilin; TGF-β-induced Col3A1 gene expression [6]: down-regulate dose-dependently; TGF-β-induced fibronectin gene expression [6]: down-regulate dose-dependently; TGF-β-induced α-SMA gene expression [6]: down-regulate dose-dependently; Col1A protein production in supernatants [7]: down-regulate dose-dependently; adipogenesis [8]: down-regulate adipogenesis in a dose-dependent manner
CN(C)C(=O)Cn1c(C(=O)N2CC(F)(F)C2)cc2ccc(-c3nccc(Nc4ccc(-c5cnc[nH]5)cc4)n3)cc21 [Example 4] | > 50 µM |  | 
Cn1c(C(=O)N2CCC(F)(F)C2)cc2ccc(-c3nccc(Nc4ccc(-c5cnc[nH]5)cc4)n3)cc21 [Example 7] | 2.1 µM |  | 
C[C@H](NC(=O)c1cc2ccc(-c3nccc(Nc4ccc(-c5cnc[nH]5)cc4)n3)cc2n1C)C(F)(F)F [Example 9] | 0.746 µM |  | 

Now from value to compound, other results behind:

IC50 (ROCK1) | IC50 (ROCK2) | Structure (SMILES) | other results
0.281 µM |  | CN(C)CCn1c(C(=O)N2CC(F)(F)C2)cc2ccc(-c3nccc(Nc4ccc(-c5cn[nH]n5)cc4)n3)cc21 [Example 15] | 
1.22 µM | 0.207 µM | O=C(c1cc2c(s1)CN(c1nccc(Nc3ccc(-c4cnn[nH]4)cc3)n1)CC2)N1CC2C(C1)C2(F)F (centres unmarked) [Example 24] | 
25.2 µM |  | O=C(c1nc2ccc(-c3nccc(Nc4ccc(-c5cn[nH]n5)cc4)n3)cc2[nH]1)N1CC(F)(F)C1 [Example 22] | 
6.85 µM |  | O=C(c1cc2c(s1)CN(c1nccc(Nc3ccc(-c4cnc[nH]4)cc3)n1)CC2)N1CCC(F)(F)C1 [Example 25] | 
0.792 µM |  | Cn1c(C(=O)N2CCCC2)cc2ccc(-c3nccc(Nc4ccc(-c5cn[nH]n5)cc4)n3)cc21 [Example 16] | 
2.28 µM | 10 µM | Cn1c(C(=O)N2CCCC2)cc2ccc(-c3nccc(Nc4ccc(-c5cnc[nH]5)cc4)n3)cc21 [Example 12] | 
23.2 µM |  | CN(C)CCn1c(C(=O)N2CCC(F)(F)C2)cc2ccc(-c3nccc(Nc4ccc(-c5cn[nH]n5)cc4)n3)cc21 [Example 18] | 
4.29 µM | 10 µM | CN(C)CCn1c(C(=O)N2CCC(F)(F)C2)cc2ccc(-c3nccc(Nc4ccc(-c5cnc[nH]5)cc4)n3)cc21 [Example 13] | 
4 µM |  | C[C@H](NC(=O)c1cc2ccc(-c3nccc(Nc4ccc(-c5cnc[nH]5)cc4)n3)cc2n1CC1COC1)C(F)(F)F [Example 10] | 
8.91 µM | 0.334 µM | O=C(c1cc2c(s1)CN(c1nccc(Nc3ccc(-c4cnc[nH]4)cc3)n1)CC2)N1CC2C(C1)C2(F)F (centres unmarked) [Example 23] | 
2.01 µM | 10 µM | O=C(c1cc2ccc(-c3nccc(Nc4ccc(-c5cn[nH]n5)cc4)n3)cc2o1)N1CC(F)(F)C1 [Example 19] | 

Source: patent US20250289807A1, “Inhibitors of ROCK2” (Graviton Bioscience BV, priority 2022, published 2025)
